We go through 1 compound from patent US20230149358A1, “COMBINATION CANCER THERAPY WITH PENTAAZA MACROCYCLIC RING COMPLEX AND HORMONE THERAPY AGENT” (Galera Labs, LLC, priority 2020, published 2023).

Entries after “also recorded” stand apart in the source; their conditions may differ.

The test system of experiment [1] is T47D-HTR cells. As to the kind of experiment: Clonogenic cell survival, hydroxy-Tam-resistant T47D-HTR cells. The experiment is classed as cell-based, human. The note with it: 5 μM GC4419 for 5 days. On the procedure:
Clonogenic cell survival assay. For the clonogenic survival analysis, exponentially growing cells were replated using appropriate dilutions, and clonogenic survival was evaluated after 14 days in regular growth medium. Cells were stained with crystal violet, and colonies of >50 cells were counted and utilized to calculate clonogenic survival^46.
To test parameters indicative of oxidative stress, a clonogenic assay with hydroxy-Tam and antioxidant treatments was performed. Cells were plated at a density of 50,000 cells per 60-mm dish and treated with 1 μM hydroxy-Tam (Sigma) and 5 μM GC4419 (Galera Therapeutics) for a total of 120 h. This protocol was repeated with a fresh medium change every 24 h for 5 days. On day 6, the cells were trypsinized, counted, and replated in control medium using appropriate dilutions, and clonogenic survival was evaluated.

The subject of experiment [2] is Sirt3^−/−-MT-SIRT3^DN tumor cells. As to the kind of experiment: Mammary allograft tumor growth (bioluminescence), Sirt3^−/−-MT-SIRT3^DN. The format is in vivo. The note with it: Sirt3^−/−-MT-SIRT3^DN allografts, nude mice, IP every other day for five weeks. The protocol:
(§1) Mice were subsequently injected with luciferin potassium (120 mg/kg) every week and signal intensity will be quantified. Error bars represent one SD from the mean.
(§2) These cell lines were subsequently infected with and selected to express either a SIRT3 wild-type (Sirt3^−/−-MT-SIRT3^WT) or deacetylation null (Sirt3^−/−-MT-SIRT3^DN) gene and a lenti-luciferase to assess tumor growth by bioluminescence. Allograft tumor mice were split into four groups: (1) control, untreated Sirt3^−/−-MT-SIRT3^DN; (2) GC4419 treated Sirt3^−/−-MT-SIRT3^DN; (3) control, untreated Sirt3^−/−-MT-SIRT3^WT; and (4) GC4419 treated Sirt3^−/−-MT-SIRT3^WT.

The test system of experiment [3] is LNCaP-MnSOD^K68Q xenografts. As to the kind of experiment: LNCaP-MnSOD^K68Q hindlimb xenograft growth in nude mice. The format is in vivo. The note with it: male nude mice; GC4419 10 mg/kg once per week, ENZ 25 mg/kg/day; 46 days. The protocol:
(§3) In FIG. 21(a), clonogenic cell survival experiments were performed in LNCaP-ENZR (left two bars) and LNCaP-MnSOD^K68Q (right two bars) treated with ENZ, with or without GC4419 (20 μM) for 5 days. […] Tumor volumes were measured three times a week for 46 days. For each group n=10. Error bars ±1 SEM. All experiments done in triplicate. **p<0.01.
Thus, it was surmised that restoring SOD activity, using the pentaaza macrocyclic ring complex GC4419, an agent that chemically detoxifies superoxide, would reverse/convert the ENZR to a sensitive phenotype. […] The dose and pharmacokinetics for GC4419 is based on data for murine models^92-93.

For experiment [4], the system named is T47D-HTR cells. Kind of experiment: Ki-67 staining, T47D-HTR cells. The experiment is classed as cell-based, human. The note with it: 5 μM GC4419 and/or 1 μM 4-hydroxy-Tam for 5 days. The text has this:
With respect to FIG. 16a, the data from FIG. 7i, where MCF7-HTR cells were stained for Ki-67, as well as DAPI, were counted with ImageJ and quantified for average Ki-67 intensity as shown in the bar graph. With respect to FIGS. 16b and 16c, T47D and T47D-HTR cells were stained for Ki-67 as well as DAPI, and particles in the nucleus were counted with ImageJ and quantified for average Ki-67 intensity as shown in the bar graph. In FIGS. 16d and 16e, MCF7-HTR cells, and in FIGS. 16f and 16g, T47D-HTR cells, were treated with 5 μM GC4419 and/or 1 μM 4-hydroxy-Tam for 5 days, and then stained for Ki-67 as well as DAPI. Quantifications of average Ki-67 intensity are shown in the bar graphs. All experiments were done in triplicate. Error bars represent ±1 SEM. ***p<0.001. Representative images are shown.
Cells seeded on glass coverslips were fixed in 4% paraformaldehyde and then blocked with 1% BSA and 10% normal goat serum in 1×PBS. Cells were incubated with anti-Ki-67 (c-bioscience) antibody in 1×PBS followed by incubation with goat anti-rabbit IgG conjugated with Alexa Fluor 647 (Invitrogen) in 1×PBS with 5% goat serum. Cells were washed in 1×PBS, mounted, and imaged with a fluorescence microscope. Fluorescence images were captured using a laser scanning confocal microscope (Nikon A1R). The paired images in all the figures were collected at the same gain and offset settings. […]

Another experiment concerns LNCaP-ENZR cells. As to the kind of experiment: Clonogenic cell survival, LNCaP-ENZR cells. The note with it: ENZ with GC4419 (20 μM) for 5 days. The experiment is classed as cell-based. On the procedure: as §3
To address whether there is a link between MnSOD-K68-Ac and ENZR, two ENZ sensitive prostate tumor cell lines were used, LNCaP or 22RV1, which were cultured in 5 μM of ENZ for 3 weeks and then continuously grown at 10 μM, using an established method^91 to select for ENZR cells. […] Since K68-Ac alters the surface charge at the MnSOD tetramerization interface, we assessed the oligomerization state of MnSOD in LNCaP-ENZR cells.

Another experiment has as its system mice lacking Sirt3. The note with it: IP 2 mg/kg, 30 minutes before IR; cited from earlier work.
Experiment [5] concerns MCF7-Cispl-R cells. As to the kind of experiment: SOX2 and OCT4 levels, MCF7-Cispl-R cells. The experiment is classed as cell-based, human. The note with it: MCF7-Cispl-R treated with GC4419; data not shown. The protocol: Aberrant HIF2α levels promote lineage plasticity, leading to chemoresistance and metastasis. […] Thus, MCF7 cells were selected for cisplatin resistance (Cispl-R) by 3 months of exposure to 5 μM Cispl.

Experiment [6] concerns MCF7-Cispl-R cells. Kind of experiment: Cisplatin sensitivity, MCF7-Cispl-R cells. The note with it: MCF7-Cispl-R treated with GC4419. The experiment is classed as cell-based, human.
Another experiment has as its system MCF7-MnSOD^K68Q cells. Kind of experiment: Ki-67 staining, MCF7-MnSOD^K68Q cells. The experiment is classed as cell-based, human. The note with it: 5 μM GC4419 and/or 1 μM 4-hydroxy-Tam for 5 days. The protocol: MCF7-MnSOD^K68Q cells (in FIGS. 17a and 17b) and T47D-MnSOD^K68Q cells (in FIGS. 17c and 17d) were treated with 5 μM GC4419 and/or 1 μM 4-hydroxy-Tam for 5 days, and then stained for Ki-67 as well as DAPI. Quantifications of average Ki-67 intensity are shown in the bar graphs. In FIG. 17e, MCF7 and MCF7-HTR cells were implanted into both hind limbs of nude mice and tumor volumes were measured every 3 days for 6 weeks and the number of tumors that successfully implanted versus the total number of mice infected with MCF7 and MCF7-HTR as well as the average tumor weight and tumor size are shown. Representative images are shown. All experiments were done in triplicate. Error bars represent ±1 SEM. ***p<0.001.
Cells seeded on glass coverslips were fixed in 4% paraformaldehyde and then blocked with 1% BSA and 10% normal goat serum in 1×PBS. Cells were incubated with anti-Ki-67 (c-bioscience) antibody in 1×PBS followed by incubation with goat anti-rabbit IgG conjugated with Alexa Fluor 647 (Invitrogen) in 1×PBS with 5% goat serum. Cells were washed in 1×PBS, mounted, and imaged with a fluorescence microscope. Fluorescence images were captured using a laser scanning confocal microscope (Nikon A1R). The paired images in all the figures were collected at the same gain and offset settings. Post-collection processing was applied uniformly to all paired images.

Experiment [7] concerns Sirt3^−/−-MT-SIRT3^WT tumor cells. Kind of experiment: Mammary allograft tumor growth (bioluminescence), Sirt3^−/−-MT-SIRT3^WT. The format is in vivo. The note with it: Sirt3^−/−-MT-SIRT3^WT allografts, nude mice, IP. On the procedure: as §1, §2
A further experiment has as its system LNCaP-MnSOD^K68Q cells. Kind of experiment: Clonogenic cell survival, LNCaP-MnSOD^K68Q cells. The format is cell-based. The note with it: ENZ with GC4419 (20 μM) for 5 days. The protocol: as §3

For `[Cl][Mn][Cl].c1cc2nc(c1)CN[C@H]1CCCC[C@@H]1NCCN[C@H]1CCCC[C@@H]1NC2` [GC4419], in the experiment on T47D-HTR cells [1], the “sensitivity to hydroxy-Tam (clonogenic cell survival)” value was “became sensitive to hydroxy-Tam”. The allograft tumor growth entry is on record as “significant decrease in tumor growth; also recorded: tumor growth is inhibited” in [2] and “no change in tumor growth was observed” in [7]. In [3], the “xenograft growth (tumor volume)” value is “significant inhibition of xenograft growth”. Moreover, the Ki-67 staining entry with T47D-HTR cells [4] is reported as “exhibited decreased Ki-67 IHC staining; also recorded: decreased Ki-67 levels”; with MCF7-MnSOD^K68Q cells it was “reversed the increase in Ki-67 IHC staining; also recorded: decreased Ki-67 levels”. In the experiment on LNCaP-ENZR cells, the “tumor cell survival in the presence of ENZ (clonogenic)” value is “significant decrease in tumor cell survival in the presence of ENZ; also recorded: reversed the ENZR”. Besides, the liver damage result in the experiment on mice lacking Sirt3 was “attenuated liver damage”. Besides, the “SOX2 and OCT4 levels” value in the experiment on MCF7-Cispl-R cells [5] was “decreased SOX2 and OCT4 levels”. In addition, the cisplatin resistance phenotype result in the experiment on MCF7-Cispl-R cells [6] is on record as “converted the Cispl-R cells to a sensitive phenotype”. In addition, the “ENZ resistance phenotype (clonogenic cell survival)” value in the experiment with LNCaP-MnSOD^K68Q cells was “converted to a sensitive phenotype; also recorded: reversed the ENZR”.
